Assay results from US20240301409A1, “Chemically Modified Small Activating RNA” (RACTIGEN THERAPEUTICS, priority 2021, published 2024).
Read-outs that look alike come from different tables or passages of the source. Oligonucleotides are written 5' to 3', each unit as a sugar letter and its base; * is a phosphorothioate linkage, no mark a phosphodiester; rarer units and linkages stand in square brackets, end groups in braces. Plain capitals give the bases only. m = 2'-O-methyl; r = 2'-OH (RNA); f = 2'-fluoro

How the values were obtained:
[1] = tested on: Rag1-40 target sequence in the 3′ UTR of firefly luciferase, COS-1 cells; test: Analysis of off-target effects (pOff-Target dual luciferase reporter in COS-1 cells); conditions: lysed 48 hours after transfection, luciferase activity
Protocol: (§1) A 26 bp fragment comprising the target site of Rag1-40 was cloned in the antisense orientation into the 3′ UTR region of the firefly luciferase gene in a pmirGLO dual luciferase vector. Vector plasmids were co-transfected with the indicated saRNAs into COS-1 cells. Cells were lysed 48 hours after transfection, and the resulting lysates were assessed for luciferase activity. Data represent mean±SD of at least two independent experiments. Dashed line represents comparisons to blank control (top dashed line) and Rag1-40 (bottom dashed line). Values close to the top dashed line indicate no off-target effect.
(§2) A 26 bp fragment comprising the Rag1-40 target sequence was cloned in the antisense orientation into a multiple cloning site (MCS) of the 3′ untranslated region of firefly luciferase of the pmirGLO dual luciferase vector (Promega, Fitchburg, WI), to obtain pOff-Target plasmid. Following E. coli transformation and overnight incubation, plasmids for each construct were prepared by standard method. Each plasmid was transfected into COS-1 monkey kidney epithelial cells using Lipofectamine 3000 (Invitrogen, Carlsbad, CA). Subsequently, saRNA was transfected using RNAiMAX. After 24 hours of incubation, COS-1 cells were lysed with 1× lysis buffer, and luciferase activity was measured using dual luciferase reporter gene assay system (Promega, WI, USA) following manufacturer's instructions.
(§3) To assess the off-target effects of unmodified and modified saRNAs, a sequence complementary to the sense oligonucleotide strand of Rag1-40 was cloned into the 3′UTR region of the luciferase gene in a pmirGLO dual luciferase vector. The vector plasmid was co-transfected with the saRNA into COS-1 cells. Cells were lysed 48 hours after transfection and the resulting lysates were assessed for luciferase activity.

[2] = tested on: Rag1-40 target sequence in the 3′ UTR of firefly luciferase, COS-1 cells
Protocol: as §1, §2, §3

[3] = target: T1, RNase A (Bos taurus, UniProt P61823)
T1 sequence (P61823 27-150): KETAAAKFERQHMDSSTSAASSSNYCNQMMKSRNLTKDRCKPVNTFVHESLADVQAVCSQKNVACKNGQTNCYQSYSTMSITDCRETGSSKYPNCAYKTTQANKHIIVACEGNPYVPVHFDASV
Protocol: The duplexes obtained at each time point above were each added to 1 μL of 10× loading buffer, and then frozen in liquid nitrogen. After incubation, all samples were detected for the double-stranded RNA by 4% agarose gel electrophoresis, and the content of each duplex was analyzed by Image J software.
The duplexes obtained at each time point indicated above were each added to 1 μL of 10× loading buffer, and then frozen in liquid nitrogen. After incubation, all samples were detected for the double-stranded RNA by 4% agarose gel electrophoresis, and the content of each duplex was analyzed by Image J software.
saRNA (1.5 μL, 10 μM) was incubated at a final concentration of 0.02 mg/mL in PBS in the presence of RNase A (Amresco, OH, USA) at 37° C. for different durations. At the end of the incubation, the mixture was snap frozen in liquid nitrogen to stop nuclease activity. Samples were analyzed on a 4% agarose gel and examined for duplex degradation.
All chemically modified duplexes (Rag1-40-1 to Rag1-40-32) were incubated with 0.02 μg/L of RNase A for different durations (0 to 96 hours). At the end of the incubation, the size and amount of duplexes were detected by agarose gel electrophoresis.

| Substance | off-target effect compared to unmodified Rag1-40, in words [1] | off-target effect compared to unmodified Rag1-40, in words [2] | degradation of duplex at 96 hours [3] | time to complete degradation [3] [h] |
| --- | --- | --- | --- | --- |
| Rag1-40-21: saRNA duplex: sense mCmCAACUCAUUCUCCAAG*U*C (SEQ ID NO 15); antisense UACUfUGGAGAAfUGAGUfUGG*fC*A (SEQ ID NO 10) (sense CCAACUCAUUCUCCAAGUC; antisense UACUUGGAGAAUGAGUUGGCA; 2'-OMe, 2'-F, phosphorothioates; modified_base (1)..(2) (1,2)=2′-O-methyl(2′-OMe); modified_base (17)..(19) (17,18,19)=phosphorothioate (PS) backbone modification; modified_base (5)..(20) (5,12,17,20)=2′-fluoro; modified_base (19)..(21) (19,20,21)=phosphorothioate (PS) backbone modification) | mitigated or similar off-target effects | – | – | – |
| Rag1-40-23: saRNA duplex: sense mCmCAACUCAUUCUCCAAG*U*C (SEQ ID NO 15); antisense U*A*fCfUfUGGAGAAfUGAGfUfUGG*fC*A (SEQ ID NO 12) (sense CCAACUCAUUCUCCAAGUC; antisense UACUUGGAGAAUGAGUUGGCA; 2'-OMe, 2'-F, phosphorothioate modifications; modified_base (1)..(2) (1,2)=2′-O-methyl(2′-OMe); modified_base (17)..(19) (17,18,19)=phosphorothioate (PS) backbone modification; modified_base (2)..(21) (2,3,19,20,21)=phosphorothioate (PS) backbone modification; modified_base (3)..(20) (3,4,5,12,16,17,20)=2′-fluoro) | – | mitigated or similar off-target effects | little or no signs of degradation | – |
| Rag1-40-28: saRNA duplex: sense fCfCAACUCAUUCUCCAAG*U*C (SEQ ID NO 16); antisense fUACUfUGGAGAAfUGAGUfUGG*fC*A (SEQ ID NO 9) (sense fCfCrArArCrUrCrArUrUrCrUrCrCrArArG*rU*rC; antisense fUrArCrUfUrGrGrArGrArAfUrGrArGrUfUrGrG*fC*rA) | – | mitigated or similar off-target effects | – | ≤ 24 |
| Rag1-40-7: saRNA duplex: sense mCmCAACUCAUUCUCCAAGmUmC (SEQ ID NO 5); antisense U*A*fCfUfUGGAGAAfUGAGfUfUGG*fC*A (SEQ ID NO 12) (sense mCmCrArArCrUrCrArUrUrCrUrCrCrArArGmUmC; antisense rU*rA*fCfUfUrGrGrArGrArAfUrGrArGfUfUrGrG*fC*rA) | – | mitigated or similar off-target effects | little or no signs of degradation | – |
| Rag1-40-22: saRNA duplex: sense mCmCAACUCAUUCUCCAAG*U*C (SEQ ID NO 15); antisense fU*A*fCfUfUGGAGAAfUGAGfUfUGG*fC*A (SEQ ID NO 11) (sense CCAACUCAUUCUCCAAGUC; antisense UACUUGGAGAAUGAGUUGGCA; 2'-OMe, 2'-F, phosphorothioate modifications; modified_base (1)..(2) (1,2)=2′-O-methyl(2′-OMe); modified_base (17)..(19) (17,18,19)=phosphorothioate (PS) backbone modification; modified_base (1)..(21) (1,2,3,19,20,21)=phosphorothioate (PS) backbone modification; modified_base (1)..(20) (1,3,4,5,12,16,17,20)=2′-fluoro) | – | completely inhibited | little or no signs of degradation | – |
| Rag1-40-2: saRNA duplex: sense mCmCAACUCAUUCUCCAAGmUmC (SEQ ID NO 5); antisense fUACUfUGGAGAAfUGAGUfUGGfCA (SEQ ID NO 7) (sense CCAACUCAUUCUCCAAGUC; antisense UACUUGGAGAAUGAGUUGGCA; 2'-OMe and 2'-F modifications; modified_base (1)..(19) (1,2,18,19)=2′-O-methyl(2′-OMe); modified_base (1)..(20) (1,5,12,17,20)=2′-fluoro) | – | mitigated or similar off-target effects | – | ≤ 24 |
| Rag1-40-6: saRNA duplex: sense mCmCAACUCAUUCUCCAAGmUmC (SEQ ID NO 5); antisense fU*A*fCfUfUGGAGAAfUGAGfUfUGG*fC*A (SEQ ID NO 11) (sense mCmCrArArCrUrCrArUrUrCrUrCrCrArArGmUmC; antisense fU*rA*fCfUfUrGrGrArGrArAfUrGrArGfUfUrGrG*fC*rA) | – | mitigated or similar off-target effects | little or no signs of degradation | – |
